For 21 molecules, T/C results are on record in PubChem BioAssay AID278 (DTP/NCI, 2004).

Values joined by “and” are separate entries in the source; they are usually repeats but may differ in a detail not shown here. Equal values may be shown once. Inconclusive results are not listed. Residues, ends and D or L forms follow the SMILES beside them. *: point of attachment. Trt = c1ccc(C(c2ccccc2)(c2ccccc2)*)cc1; Cbz = O=C(OCc1ccccc1)*; Bn = c1ccc(C*)cc1; βAla = NCCC(=O)O

This experiment has as its system nude mice, A549 intrarenal xenograft, tumor weight change. The experiment can be described thus: NCI In Vivo Anticancer Drug Screen. Data for tumor model A549 Human Adenocarcinoma of Lung with characteristics of Type II Alveolar Epithelial cells (intrarenal inoculation) in NU/NU BALB/C (nude) mice. The note with it: endpoint: mean tumor weight change, schedule: Q04DX003 (ip), higher = larger tumour. The method, boiled down:
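Mice bearing transplantable tumors were treated and survival or tumor size recorded. Values are given as treated-group measurement divided by vehicle-control measurement (T/C).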

The mark [1] stands for this setting: dose: 25.0 mg/kg/injection, vehicle: saline with Tween-80.
The mark [2] stands for this setting: dose: 50.0 mg/kg/injection, vehicle: saline with Tween-80.
Setting [3] is: dose: 100.0 mg/kg/injection, vehicle: saline with Tween-80.
[4] abbreviates: dose: 150.0 mg/kg/injection, vehicle: saline with Tween-80.
The mark [5] stands for this setting: dose: 300.0 mg/kg/injection, vehicle: saline with Tween-80.

For `CCCCN1C(=O)N(c2ccc(OCC)cc2)C2N(CCCC)C1C(C)(C)C2(C)C` (stereo not given), the T/C reads like this: (dose: 15.0 mg/kg/injection, vehicle: saline with Tween-80) 60 % of control; (dose: 30.0 mg/kg/injection, vehicle: saline with Tween-80) 51 % of control; (dose: 60.0 mg/kg/injection, vehicle: saline with Tween-80) 88 % of control; (dose: 120.0 mg/kg/injection, vehicle: saline with Tween-80) 94 % of control.
Regarding `[CH3][Sn]([CH3])([Cl])[c]1cc[c]([Sn]([CH3])([CH3])[Cl])cc1`, the T/C was 84 % of control (dose: 1.25 mg/kg/injection, vehicle: saline); 160 % of control (dose: 2.5 mg/kg/injection, vehicle: saline); 70 % of control (dose: 5.0 mg/kg/injection, vehicle: saline).
For the molecule `O=C1c2cccc(NCCCNCCO)c2C(=O)c2cccc(NCCCNCCO)c21`, the T/C (dose: 12.5 mg/kg/injection, vehicle: acid diluted with saline) was 108 % of control and the T/C (dose: 25.0 mg/kg/injection, vehicle: acid diluted with saline) is 70 % of control.
With `Nc1ncnc2c1nc(Cl)n2C1OC2COP(=O)(O)OC2C1O` (stereo not given), the T/C was 198 % of control (dose: 25.0 mg/kg/injection, vehicle: water) and 85 % of control (dose: 50.0 mg/kg/injection, vehicle: water).
On to `c1cc2c(c(CC3CO3)c1CC1CO1)OCCOCCOCCOCCO2` (stereo not given), for which the T/C runs as follows: (dose: 62.5 mg/kg/injection, vehicle: saline + alcohol) 74 % of control; (dose: 125.0 mg/kg/injection, vehicle: saline + alcohol) 98 % of control; (dose: 250.0 mg/kg/injection, vehicle: saline + alcohol) 64 % of control; (dose: 375.0 mg/kg/injection, vehicle: saline + alcohol) 75 % of control.
For the molecule `CN(C)/N=N/c1nc[nH]c1C(N)=O`, the T/C was 11 % of control (dose: 75.0 mg/kg/injection, vehicle: suspension in saline); 48 % of control (dose: 150.0 mg/kg/injection, vehicle: suspension in saline); 8 % of control (dose: 225.0 mg/kg/injection, vehicle: suspension in saline).
Consider `CC1/C=C/C=C/CC/C=C/C=C/C=C/C=C/C(OC2OC(C)C(O)C(N)C2O)CC2OC(CC(O)C(O)CCC(O)CC(O)CC(O)CC(=O)OC(C)C(C)C1O)CC(O)C2C(=O)O` (stereo not given), for which the T/C was 97 % of control under setting [1], 69 % of control under setting [2] and 62 % of control under setting [3].
For `COC(=O)C(CSC(c1ccccc1)(c1ccccc1)c1ccccc1)NC(=O)C(CSCc1ccccc1)NC(=O)CCNC(=O)OCc1ccccc1` (stereo not given) ({Cbz-βAla}-Cys(Bn)-Cys(Trt)-OMe; configuration not given here), the T/C reads like this: (dose: 100.0 mg/kg/injection, vehicle: Klucel + Tween-80) 153 % of control; (dose: 200.0 mg/kg/injection, vehicle: Klucel + Tween-80) 112 % of control; (dose: 400.0 mg/kg/injection, vehicle: Klucel + Tween-80) 161 % of control; (dose: 800.0 mg/kg/injection, vehicle: Klucel + Tween-80) 109 % of control.
Turning to `Nc1n[nH]c2ccccc12`, the T/C under setting [4] was 69 % of control; the T/C under setting [5] was 52 % of control; the T/C (dose: 600.0 mg/kg/injection, vehicle: saline with Tween-80) was 33 % of control.
Take `CN=C(NC)c1ccc(NC(=O)/C=C\c2ccc(/C=C/C(=O)Nc3ccc(C(=NC)NC)cc3)cc2)cc1`: the T/C was 47 % of control (dose: 3.13 mg/kg/injection, vehicle: Klucel (hydroxypropylcellulose) (HPC)); 67 % of control (dose: 6.25 mg/kg/injection, vehicle: Klucel (hydroxypropylcellulose) (HPC)); 47 % of control (dose: 12.5 mg/kg/injection, vehicle: Klucel (hydroxypropylcellulose) (HPC)).
Consider `Cc1cc(Br)c2nsnc2c1[N+](=O)[O-]`, for which the T/C is, setting by setting: under setting [4], 7 % of control and 26 % of control; (dose: 1200.0 mg/kg/injection, vehicle: saline with Tween-80) 38 % of control.
As to `COC1=C(C)C(=O)C2=C(C1=O)C(CO)N1C(C#N)C3CC4C(C1C2N1CCOC41)N3C` (stereo not given), the T/C runs as follows: (dose: 1.25 mg/kg/injection, vehicle: saline + alcohol) 117 % of control; (dose: 2.5 mg/kg/injection, vehicle: saline + alcohol) 45 % of control.
For the molecule `CC(=O)/C(=C\c1ccc(Cl)c(Cl)c1)C(=O)CCN(C)C`, the T/C (dose: 12.5 mg/kg/injection, vehicle: saline) was 78 % of control; the T/C (dose: 25.0 mg/kg/injection, vehicle: saline) was 39 % of control; the T/C (dose: 50.0 mg/kg/injection, vehicle: saline) is 32 % of control.
Consider `c1cn[nH]c1`, for which the T/C (dose: 113.9 mg/kg/injection, vehicle: saline) is 93 % of control; the T/C (dose: 151.9 mg/kg/injection, vehicle: saline) was 47 % of control; the T/C (dose: 202.5 mg/kg/injection, vehicle: saline) was 63 % of control; the T/C (dose: 300.0 mg/kg/injection, vehicle: saline) was 46 % of control.
In the case of `Cn1c2ccccc2c2ccc3c(c21)C(=O)C=CC3=O`, the T/C is 61 % of control under setting [1]; 26 % of control under setting [2]; 38 % of control under setting [3]; 35 % of control (dose: 200.0 mg/kg/injection, vehicle: saline with Tween-80).
As to `ClCCCSSCCCCl`, the T/C was 56 % of control (dose: 62.5 mg/kg/injection, vehicle: saline with Tween-80); 76 % of control (dose: 125.0 mg/kg/injection, vehicle: saline with Tween-80); 81 % of control (dose: 250.0 mg/kg/injection, vehicle: saline with Tween-80); 82 % of control (dose: 500.0 mg/kg/injection, vehicle: saline with Tween-80).
Consider `COC(=O)NC1C(C)OC(OC2C/C=C(/C)C3C=CC4C(OC5CC(OC6CC(OC7CC(O)C(O)C(C)O7)C(OC7CC(O)C(OC)C(C)O7)C(C)O6)C(O)C(C)O5)C(C)CC(C)C4C3(C)/C(O)=C3\C(=O)OC4(CC(C)C(CO)=CC4/C=C\2C)C3=O)CC1(C)[N+](=O)[O-]` (stereo not given), for which the T/C reads like this: (dose: 9.38 mg/kg/injection, vehicle: water) 69 % of control; (dose: 18.75 mg/kg/injection, vehicle: water) 58 % of control; (dose: 37.5 mg/kg/injection, vehicle: water) 76 % of control.
Regarding `O=C(Nc1cccc(O)c1)C(Cl)=C(Cl)Cl`, the T/C was 46 % of control (dose: 18.0 mg/kg/injection, vehicle: other); 108 % of control (dose: 25.0 mg/kg/injection, vehicle: DMSO); 50 % of control and 74 % of control (dose: 30.0 mg/kg/injection, vehicle: other); 18 % of control (dose: 50.0 mg/kg/injection, vehicle: DMSO); 76 % of control (dose: 50.0 mg/kg/injection, vehicle: other).
Take `CCN(CC)c1ccc2[nH]c3c(C(N)=O)cc(=O)c(=O)c=3oc2c1`: the T/C under setting [4] was 84 % of control and the T/C under setting [5] was 96 % of control.
For `N#Cc1c(N)[nH]c2ccc(Sc3ccccc3)cc12`, the T/C was 106 % of control (dose: 30.0 mg/kg/injection, vehicle: saline); 42 % of control (dose: 60.0 mg/kg/injection, vehicle: saline); 49 % of control (dose: 240.0 mg/kg/injection, vehicle: saline).
For the molecule `CC(O)C1(O)C(O)CC(OC2c3cc4c(c(O)c3[C@@H]3C[C@@]2(C)OC32C=c3cc[nH]c3=N2)C(=O)c2cccc(O)c2C4=O)OC1C` (stereo not given in full), the T/C under setting [1] is 65 % of control and the T/C under setting [2] was 55 % of control.
